From ChEMBL document CHEMBL1201862, “PubChem BioAssay data set” (2004)
Active and inactive are the calls of the source.

Assays:
[1] = biological target: T1, 1-phosphatidylinositol 4,5-bisphosphate phosphodiesterase beta-3 (Homo sapiens, UniProt Q01970); experiment: Fluorescence-based biochemical high throughput dose response assay to identify inhibitors of phospholipase C isozymes (PLC-B3).
T1 sequence (Q01970 whole entry): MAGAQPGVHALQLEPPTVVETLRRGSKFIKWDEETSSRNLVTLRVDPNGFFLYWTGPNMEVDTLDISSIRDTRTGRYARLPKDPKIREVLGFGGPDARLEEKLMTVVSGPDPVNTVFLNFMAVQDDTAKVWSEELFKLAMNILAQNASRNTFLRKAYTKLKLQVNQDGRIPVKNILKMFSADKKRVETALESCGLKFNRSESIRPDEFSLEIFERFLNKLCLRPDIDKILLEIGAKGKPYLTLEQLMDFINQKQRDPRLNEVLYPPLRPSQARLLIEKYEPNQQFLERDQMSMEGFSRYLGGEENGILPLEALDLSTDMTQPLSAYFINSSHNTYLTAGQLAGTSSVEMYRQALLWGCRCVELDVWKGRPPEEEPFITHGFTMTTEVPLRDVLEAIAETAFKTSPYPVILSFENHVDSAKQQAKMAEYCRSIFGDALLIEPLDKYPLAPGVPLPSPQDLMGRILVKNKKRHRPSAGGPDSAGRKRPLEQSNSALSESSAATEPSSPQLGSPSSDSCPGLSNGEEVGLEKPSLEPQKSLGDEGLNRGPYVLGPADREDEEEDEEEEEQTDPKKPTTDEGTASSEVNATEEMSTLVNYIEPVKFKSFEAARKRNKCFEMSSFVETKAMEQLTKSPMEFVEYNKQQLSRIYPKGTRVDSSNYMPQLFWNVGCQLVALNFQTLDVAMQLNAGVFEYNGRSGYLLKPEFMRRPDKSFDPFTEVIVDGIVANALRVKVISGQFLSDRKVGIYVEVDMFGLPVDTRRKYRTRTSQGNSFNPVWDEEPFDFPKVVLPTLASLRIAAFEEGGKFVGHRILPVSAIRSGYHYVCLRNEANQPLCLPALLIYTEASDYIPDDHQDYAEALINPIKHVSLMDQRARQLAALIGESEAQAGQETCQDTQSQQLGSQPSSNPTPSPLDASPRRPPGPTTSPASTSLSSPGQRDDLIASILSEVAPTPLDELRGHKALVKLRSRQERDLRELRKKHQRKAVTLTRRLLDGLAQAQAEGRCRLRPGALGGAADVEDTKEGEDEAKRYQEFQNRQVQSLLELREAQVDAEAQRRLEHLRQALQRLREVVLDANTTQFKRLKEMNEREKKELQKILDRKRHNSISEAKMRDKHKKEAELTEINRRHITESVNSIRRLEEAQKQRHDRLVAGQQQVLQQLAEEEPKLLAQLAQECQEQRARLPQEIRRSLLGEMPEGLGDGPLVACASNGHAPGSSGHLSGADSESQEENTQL

BJ [2] = experiment: BJ-TERT fibroblast viability loss – cell-based, RAS-independent, luminescence, dose response (AID 1933); assay type: functional; details: Homo sapiens
[3] = viability of PTEN-deleted HCT116 cells – cell-based, HCT116 PTEN knockout, dose response (AID 1047); assay type: functional;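 note: HCT116 colon tumor cells with PTEN knocked out; cells exposed to compound for 60 hours before readout; potency for loss of cell viability measured by luminescence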
cells = assay type: functional
[4] = Vero E6 cell cytotoxicity, dose response, cytotoxicity control for non-replicating M. tuberculosis project, secondary assay (AID 492998); assay type: functional, VeroE6; details: Vero C1008
[5] = biological target: Ras and Rab interactor 1/Tyrosine-protein kinase ABL1 (Homo sapiens, UniProt P00519+Q13671); assay type: functional;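 note: biochemical TR-FRET dose-response test measuring inhibition of binding between Rin1 and Abl proteins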
[6] = viability of HCT116 lacking mutant beta-catenin – cell-based, human colon tumor, dose response (AID 1045); assay type: functional;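 note: HCT116 colon tumor cells with beta catenin knocked out; cells exposed to compound for 60 hours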
[7] = alpha-synuclein stem-loop luciferase translation blockers – H4 neuroglioma cells, luminescence, confirmation (AID 1988); assay type: functional, cell-based
[8] = biological target: T2, Tyrosine-protein phosphatase non-receptor type 7 (Homo sapiens, UniProt P35236); assay type: functional
T2 sequence (P35236 whole entry): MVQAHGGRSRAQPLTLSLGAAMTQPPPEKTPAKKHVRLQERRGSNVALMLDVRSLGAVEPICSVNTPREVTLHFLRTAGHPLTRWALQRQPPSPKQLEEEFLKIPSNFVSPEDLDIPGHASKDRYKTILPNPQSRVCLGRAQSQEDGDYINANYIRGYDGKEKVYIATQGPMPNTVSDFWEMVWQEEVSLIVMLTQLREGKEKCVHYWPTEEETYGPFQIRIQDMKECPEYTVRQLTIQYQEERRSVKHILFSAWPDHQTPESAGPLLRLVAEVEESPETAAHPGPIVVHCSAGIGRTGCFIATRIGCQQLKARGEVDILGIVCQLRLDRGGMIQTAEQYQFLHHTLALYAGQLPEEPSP

INS1 = experiment: INS-1E survival protection against cytokine death – cell-based, luminescence, retest, dose response (AID 449756); assay type: functional; details: Rattus norvegicus;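 note: cell death triggered by IL-1 beta plus TNF-alpha plus IFN-gamma mixture; protective hits raise ATP signal compared with cytokine alone wells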
[9] = biological target: T3, Tyrosine-protein phosphatase non-receptor type 22 (Homo sapiens, UniProt Q9Y2R2); assay type: functional;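 note: confirmatory dose-response retest of primary uHTS hits for inhibition of LYP phosphatase, measured by a fluorescence intensity read-out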
T3 sequence (Q9Y2R2 whole entry): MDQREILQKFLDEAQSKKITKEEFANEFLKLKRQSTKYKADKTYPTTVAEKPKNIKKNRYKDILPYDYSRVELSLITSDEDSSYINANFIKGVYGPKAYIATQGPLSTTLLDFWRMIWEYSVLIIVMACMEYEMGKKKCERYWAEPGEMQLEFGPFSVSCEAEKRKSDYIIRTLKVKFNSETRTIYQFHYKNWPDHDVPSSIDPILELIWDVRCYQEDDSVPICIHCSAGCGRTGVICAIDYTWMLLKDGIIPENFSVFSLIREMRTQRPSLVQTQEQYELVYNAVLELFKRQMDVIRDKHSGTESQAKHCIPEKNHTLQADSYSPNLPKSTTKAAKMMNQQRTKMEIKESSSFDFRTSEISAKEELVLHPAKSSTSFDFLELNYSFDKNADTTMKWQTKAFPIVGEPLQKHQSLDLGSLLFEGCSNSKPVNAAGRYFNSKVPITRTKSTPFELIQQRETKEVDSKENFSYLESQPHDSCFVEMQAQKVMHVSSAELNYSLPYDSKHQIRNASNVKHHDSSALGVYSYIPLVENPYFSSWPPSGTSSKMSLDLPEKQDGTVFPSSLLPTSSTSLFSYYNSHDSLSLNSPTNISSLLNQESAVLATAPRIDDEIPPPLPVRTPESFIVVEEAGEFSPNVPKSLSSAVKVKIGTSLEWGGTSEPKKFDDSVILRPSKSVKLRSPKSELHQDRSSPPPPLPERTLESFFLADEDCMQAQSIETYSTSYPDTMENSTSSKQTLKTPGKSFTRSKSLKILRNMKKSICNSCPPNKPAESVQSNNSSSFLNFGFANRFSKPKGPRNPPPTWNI

BJ [10] = experiment: cells; assay type: functional, cell-based; details: Homo sapiens

Ras and Rab interactor 1/Tyrosine-protein kinase ABL1, sequence (P00519 whole entry): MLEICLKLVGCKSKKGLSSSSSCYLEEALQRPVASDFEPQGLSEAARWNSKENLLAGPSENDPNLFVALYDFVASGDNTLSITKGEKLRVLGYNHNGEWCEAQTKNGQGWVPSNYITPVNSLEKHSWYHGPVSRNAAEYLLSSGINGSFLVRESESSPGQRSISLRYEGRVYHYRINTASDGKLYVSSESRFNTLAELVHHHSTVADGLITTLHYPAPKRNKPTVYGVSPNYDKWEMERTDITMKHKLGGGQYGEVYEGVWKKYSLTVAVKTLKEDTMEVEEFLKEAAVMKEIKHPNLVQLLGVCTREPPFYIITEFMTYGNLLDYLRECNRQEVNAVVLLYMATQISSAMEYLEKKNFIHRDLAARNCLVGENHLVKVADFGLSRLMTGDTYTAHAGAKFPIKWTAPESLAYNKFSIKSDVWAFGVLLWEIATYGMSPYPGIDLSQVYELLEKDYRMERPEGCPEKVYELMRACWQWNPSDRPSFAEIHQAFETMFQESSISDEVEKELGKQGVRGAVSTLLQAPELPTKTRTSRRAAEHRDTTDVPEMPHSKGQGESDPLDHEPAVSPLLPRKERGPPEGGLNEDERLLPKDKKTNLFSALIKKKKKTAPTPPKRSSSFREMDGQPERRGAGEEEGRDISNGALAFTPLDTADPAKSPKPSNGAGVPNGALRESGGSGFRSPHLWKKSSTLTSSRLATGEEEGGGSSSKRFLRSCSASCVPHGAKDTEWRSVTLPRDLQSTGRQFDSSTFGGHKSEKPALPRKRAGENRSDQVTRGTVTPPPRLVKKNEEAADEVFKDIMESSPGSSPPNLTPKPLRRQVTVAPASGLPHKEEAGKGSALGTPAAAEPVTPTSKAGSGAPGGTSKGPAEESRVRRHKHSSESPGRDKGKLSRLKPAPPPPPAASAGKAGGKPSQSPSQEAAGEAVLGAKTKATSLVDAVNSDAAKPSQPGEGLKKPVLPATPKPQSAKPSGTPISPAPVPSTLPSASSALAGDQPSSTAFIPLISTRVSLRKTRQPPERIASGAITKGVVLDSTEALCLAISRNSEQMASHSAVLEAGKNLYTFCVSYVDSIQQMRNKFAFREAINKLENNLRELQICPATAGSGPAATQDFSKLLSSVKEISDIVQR
Ras and Rab interactor 1/Tyrosine-protein kinase ABL1, sequence (Q13671 whole entry): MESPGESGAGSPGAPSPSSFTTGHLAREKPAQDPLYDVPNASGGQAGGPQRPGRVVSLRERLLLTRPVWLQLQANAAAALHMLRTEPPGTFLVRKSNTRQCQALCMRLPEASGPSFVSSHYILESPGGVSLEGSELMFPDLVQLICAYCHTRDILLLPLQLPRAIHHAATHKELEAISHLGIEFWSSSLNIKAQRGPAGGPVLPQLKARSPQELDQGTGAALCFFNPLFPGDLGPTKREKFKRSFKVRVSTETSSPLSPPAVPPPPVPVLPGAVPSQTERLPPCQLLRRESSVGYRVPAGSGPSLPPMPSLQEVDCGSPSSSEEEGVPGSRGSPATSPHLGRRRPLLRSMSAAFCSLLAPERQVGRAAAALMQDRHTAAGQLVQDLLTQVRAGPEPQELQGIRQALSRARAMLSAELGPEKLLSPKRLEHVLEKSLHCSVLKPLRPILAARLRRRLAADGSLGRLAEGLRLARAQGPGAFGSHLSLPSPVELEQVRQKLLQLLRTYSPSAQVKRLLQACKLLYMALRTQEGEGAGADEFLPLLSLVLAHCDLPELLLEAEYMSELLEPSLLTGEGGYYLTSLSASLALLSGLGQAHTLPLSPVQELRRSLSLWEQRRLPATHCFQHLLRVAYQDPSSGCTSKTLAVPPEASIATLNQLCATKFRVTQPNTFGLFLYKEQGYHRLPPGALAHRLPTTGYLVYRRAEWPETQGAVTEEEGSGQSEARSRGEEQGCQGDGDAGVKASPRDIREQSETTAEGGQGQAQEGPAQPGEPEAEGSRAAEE

Row | Compound | IC50 [1] | EC50 (BJ [2]) | EC50 [3] | IC50 (cells) | CC50 [4] | IC50 [5] | EC50 [6] | EC50 [7] | IC50 [8] | AC50 (INS1) | IC50 [9] | EC50 (BJ [10])
1 | O=C(CCN1C(=O)/C(=C\c2ccco2)SC1=S)Nc1ccc(C(=O)O)c(O)c1 | > 122000 nM (inactive) |  |  |  |  |  |  |  |  |  |  | 
2 | Cc1nc2c(=O)n(C)c(=O)nc-2n(C)n1 |  | 4560 nM (active) | 821 nM (active) | 2270 nM (active) | 4510 nM (active) | 302 nM (active) | 781 nM (active) | 136 nM (active) | < 1240 nM (active) | 695 nM (active) | < 1240 nM (active) | 5690 nM (active)
